Assay results taken from patent US20230064324A1, “NEW USES FOR STEVIOL” (SUNTORY HOLDINGS LIMITED, priority 2019, published 2023).

Key:
CHOP [1] = test: CHOP expression in neuronal cells under endoplasmic reticulum stress (RT-PCR); assay type: cell-based, Rat; details: pretreatment 1 h, tunicamycin 0.16 μM 24 h
Experimental: (§1) Neuronal cells were prepared as follows. PC12 cells were reconstituted by seeding at 2×10^6 cells/flask to a collagen IV-coated flask, and precultured for 3 days in the growth medium in a CO2 incubator.
(§2) The lysate was preserved at −80° C. until use.
(§3) The internal standard gene used was GAPDH gene.

PC12 cells (clone HS) = test: Cytotoxicity of steviol to PC12 cells (WST-8 viable cell count); assay type: cell-based, Rat; details: for Relative viable cell count (%): 3 days, Control=100%
Experimental: PC12 cells (clone HS, Cat. No. JCRB0266, JCRB) were precultured for 3 days in a collagen IV-coated flask (T-75, Corning Inc., Cat. No. 354523) using a growth medium (DMEM medium (low glucose, Cat. No. 08456-65, Nacalai Tesque, Inc.) supplemented with 10% FBS (Cat. No. 172012, Sigma-Aldrich Co., LLC), 10% horse serum (Cat. No. 16050-122, Thermo Fisher Scientific Inc.), and 1% penicillin-streptomycin) in a CO2 incubator (37° C., 5% CO2; the same holds true for the description below). […] A vehicle control composed of a test medium supplemented with 0.1% DMSO (final concentration) was used as a negative control.

[2] = system: neuronal cells (induced from PC12 cells); test: Cytotoxicity of steviol to neuronal cells (differentiated PC12, WST-8); assay type: cell-based, Rat; details: for Relative viable cell count (%): 2 days, differentiated PC12, Control=100%
Excerpt: PC12 cells (Cat. No. 88022401, ECACC) were precultured in a collagen IV-coated flask using the growth medium. […] A vehicle control composed of a test medium supplemented with 0.1% DMSO (final concentration) was used as a negative control.

GRP78 [3] = test: GRP78 expression in pancreatic cells (βTC6) under endoplasmic reticulum stress (RT-PCR); assay type: cell-based, Mouse; details: pretreatment 4 h, tunicamycin 0.16 μM 24 h
Experimental: as §2, §3

CHOP [4] = test: CHOP expression in adipocytes under endoplasmic reticulum stress (RT-PCR); assay type: cell-based, Human; details: pretreatment 24 h, tunicamycin 0.65 μM 24 h
Experimental: (§4) Adipocytes were prepared as follows. Normal human subcutaneous preadipocytes were reconstituted in a T75 flask using a growth medium (PBM-2 medium, Cat. No. PT-8002, Lonza, supplemented with 10% FBS, 2 mM L-glutamine, 50 μg/mL gentamycin, and 37 ng/mL amphotericin-B), and precultured for 3 days in a CO2 incubator (37° C., 5% CO2; the same holds true for the description below).
as §2, §3

[5] = system: neuronal cells (induced from PC12 cells); test: Cell-protecting effect against tunicamycin-induced endoplasmic reticulum stress (WST-8); details: 1 μM tunicamycin
Experimental: PC12 cells were precultured using the growth medium in a same manner as Example 3. The cells were detached using 0.25% trypsin-EDTA, seeded at 5,000 cells/100 μL/well to a collagen IV-coated 96-well plate (Cat. No. 354429, Corning) using the growth medium, and cultured overnight in a CO2 incubator. On the next day, the medium was replaced with 100 μL of the differentiation medium, and the cells were cultured for 2 days in a CO2 incubator to induce their differentiation into neuronal cells. […] IGF-1 (Cat. No. SRP4121, Sigma-Aldrich Co., LLC) was dissolved at 100 μg/mL in Nuclease Free Water and then added at 100 ng/mL to the differentiation medium.
After the completion of endoplasmic reticulum stress induction treatment, viable cell count measurement was performed by the WST-8 method to evaluate damage on the cells by endoplasmic reticulum stress. Specifically, the medium of each well after culture was replaced with 200 μL of a differentiation medium supplemented with a 1/10 amount of viable cell count measurement reagent SF, and the cells were incubated in a CO2 incubator. 30 minutes later and 90 minutes later, absorbance (450 nm, reference wavelength: 630 nm) was measured using a plate reader (VARIOSKAN FLASH, Thermo Fisher Scientific Inc.), and absorbance difference per 60 minutes was regarded as a relative viable cell count.

[6] = system: endoplasmic reticulum stress markers CHOP and GRP78; test: Endoplasmic reticulum stress-suppressing effect in each type of cell (markers CHOP and GRP78), overall statement; assay type: cell-based; details: neuronal cells, adipocytes, hepatocytes, pancreatic cells; tunicamycin-induced; CHOP and GRP78 as index
Experimental: Steviol was evaluated for its influence on endoplasmic reticulum stress in each type of cell by using endoplasmic reticulum stress markers CHOP and GRP78 as an index. The test cells used were neuronal cells (induced from PC12 cells), adipocytes (normal human subcutaneous preadipocytes, Cat. No. PT-5020, Lonza Group AG), hepatocytes (HepG2, Cat. No. JCRB1054, JCRB) and pancreatic cells (βTC6, ATCC® CRL-11506).
4PA (P21005, Sigma-Aldrich Co., LLC) was dissolved in a medium and then added at a predetermined concentration to a differentiation medium or a growth medium.
After the completion of endoplasmic reticulum stress induction treatment, the expression levels of CHOP and GRP78 were measured to evaluate the degree of endoplasmic reticulum stress. First, FasteLane lysate (RNA) was prepared for RNA extraction using FastLane Cell Probe kit (Cat. No. 216413, Qiagen N.V.). After removal of the medium, each well was washed by the addition of 125 μL of Buffer FCW and its immediate removal. Then, 50 μL of Cell processing mix was added to each well, followed by incubation at room temperature for 5 minutes to prepare FasteLane lysate. […]
RT-PCR reaction was performed under conditions of 50° C. for 30 minutes, 95° C. for 15 minutes, and (94° C. for 15 seconds and 60° C. for 60 seconds)×40 cycles. […] A relative expression level was calculated by the ΔΔCt method. […]

GRP78 [7] = test: GRP78 expression in neuronal cells under endoplasmic reticulum stress (RT-PCR); assay type: cell-based, Rat; details: pretreatment 24 h, tunicamycin 1.0 μM 24 h
Experimental: as §1, §2, §3

CHOP [8] = test: CHOP expression in pancreatic cells (βTC6) under endoplasmic reticulum stress (RT-PCR); assay type: cell-based, Mouse; details: pretreatment 4 h, tunicamycin 0.16 μM 24 h
Experimental: as §2, §3

GRP78 [9] = test: GRP78 expression in adipocytes under endoplasmic reticulum stress (RT-PCR); assay type: cell-based, Human; details: pretreatment 24 h, tunicamycin 0.65 μM 24 h
Experimental: as §4, §2, §3

Compound: C=C1C[C@@]23CC[C@H]4[C@@](C)(CCC[C@@]4(C)C(=O)O)[C@@H]2CC[C@]1(O)C3 [Steviol]
- Expression level of CHOP in neuronal cells (relative to GAPDH, untreated=1) (CHOP [1]; steviol 6.25 μg/mL): 6.61
- Expression level of CHOP in neuronal cells (relative to GAPDH, untreated=1) (CHOP [1]; steviol 12.5 μg/mL): 6.55
- Expression level of CHOP in neuronal cells (relative to GAPDH, untreated=1) (CHOP [1]; steviol 25 μg/mL): 6.24
- Expression level of CHOP in neuronal cells (relative to GAPDH, untreated=1) (CHOP [1]; steviol 50 μg/mL): 5.79
- cytotoxicity to PC12 cells (in words) (PC12 cells (clone HS); 100 μg/mL steviol): no particular cytotoxicity to be noted was found
- Relative viable cell count (%) (PC12 cells (clone HS); steviol 0.01 μg/mL): 102.8%
- Relative viable cell count (%) (PC12 cells (clone HS); steviol 0.1 μg/mL): 97.0%
- Relative viable cell count (%) (PC12 cells (clone HS); steviol 1 μg/mL): 95.3%
- Relative viable cell count (%) (PC12 cells (clone HS); steviol 10 μg/mL): 99.6%
- Relative viable cell count (%) (PC12 cells (clone HS); steviol 100 μg/mL): 96.9%
- cytotoxicity to neuronal cells (in words) ([2]; 100 μg/mL steviol): no particular cytotoxicity to be noted was found
- Relative viable cell count (%) ([2]; steviol 0.01 μg/mL): 97.7%
- Relative viable cell count (%) ([2]; steviol 0.1 μg/mL): 104.4%
- Relative viable cell count (%) ([2]; steviol 1 μg/mL): 93.6%
- Relative viable cell count (%) ([2]; steviol 10 μg/mL): 91.4%
- Relative viable cell count (%) ([2]; steviol 100 μg/mL): 95.1%
- Expression level of GRP78 in pancreatic cells (relative to GAPDH, untreated=1) (GRP78 [3]; steviol 6.25 μg/mL): 2.10
- Expression level of GRP78 in pancreatic cells (relative to GAPDH, untreated=1) (GRP78 [3]; steviol 12.5 μg/mL): 2.03
- Expression level of GRP78 in pancreatic cells (relative to GAPDH, untreated=1) (GRP78 [3]; steviol 25 μg/mL): 1.80
- Expression level of GRP78 in pancreatic cells (relative to GAPDH, untreated=1) (GRP78 [3]; steviol 50 μg/mL): 1.66
- Expression level of CHOP in adipocytes (relative to GAPDH, untreated=1) (CHOP [4]; steviol 6.25 μg/mL): 3.49
- Expression level of CHOP in adipocytes (relative to GAPDH, untreated=1) (CHOP [4]; steviol 12.5 μg/mL): 3.23
- Expression level of CHOP in adipocytes (relative to GAPDH, untreated=1) (CHOP [4]; steviol 25 μg/mL): 3.15
- Expression level of CHOP in adipocytes (relative to GAPDH, untreated=1) (CHOP [4]; steviol 50 μg/mL): 3.17
- adverse effect of endoplasmic reticulum stress on cells (in words) [5]: suppressed an adverse effect of endoplasmic reticulum stress on cells in a concentration-dependent manner
- endoplasmic reticulum stress (in words) [6]: suppressed endoplasmic reticulum stress in each type of cell in a concentration-dependent manner
- Expression level of GRP78 in neuronal cells (relative to GAPDH, untreated=1) (GRP78 [7]; steviol 6.25 μg/mL): 23.31
- Expression level of GRP78 in neuronal cells (relative to GAPDH, untreated=1) (GRP78 [7]; steviol 12.5 μg/mL): 23.00
- Expression level of GRP78 in neuronal cells (relative to GAPDH, untreated=1) (GRP78 [7]; steviol 25 μg/mL): 21.84
- Expression level of GRP78 in neuronal cells (relative to GAPDH, untreated=1) (GRP78 [7]; steviol 50 μg/mL): 20.15
- Expression level of CHOP in pancreatic cells (relative to GAPDH, untreated=1) (CHOP [8]; steviol 6.25 μg/mL): 2.56
- Expression level of CHOP in pancreatic cells (relative to GAPDH, untreated=1) (CHOP [8]; steviol 12.5 μg/mL): 2.46
- Expression level of CHOP in pancreatic cells (relative to GAPDH, untreated=1) (CHOP [8]; steviol 25 μg/mL): 2.21
- Expression level of CHOP in pancreatic cells (relative to GAPDH, untreated=1) (CHOP [8]; steviol 50 μg/mL): 2.25
- Expression level of GRP78 in adipocytes (relative to GAPDH, untreated=1) (GRP78 [9]; steviol 6.25 μg/mL): 4.46
- Expression level of GRP78 in adipocytes (relative to GAPDH, untreated=1) (GRP78 [9]; steviol 12.5 μg/mL): 4.18
- Expression level of GRP78 in adipocytes (relative to GAPDH, untreated=1) (GRP78 [9]; steviol 25 μg/mL): 4.06
- Expression level of GRP78 in adipocytes (relative to GAPDH, untreated=1) (GRP78 [9]; steviol 50 μg/mL): 3.54
